Test results reported in patent US10278971B2, “Fluorocyclopentenylcytosine methods of use” (Rexahn Pharmaceuticals, Inc., priority 2015, dated 2019).
Where two headings read alike, the source gives them in different places.

Experiments:
[1] = First-in-human study: pharmacokinetics, safety and tolerability; type: in vivo; conditions: for Cmax / Tmax / half-life / bioavailability: both sexes, human, plasma; for bioavailability: n=3, read-out: absolute bioavailability (F)
Description: In a first-in-human, open-label, exploratory study, the pharmacokinetics, safety and tolerability of RX-3117 were evaluated. The study duration was 14-15 days (7-day screening period; 3-day treatment period; 4 (+1)-day safety follow-up period). Nine adult male and female subjects with histologically confirmed, solid tumors enrolled in and completed the study. The subjects received RX-3117 (n=3 subjects per dose) as a single oral dose (50 mg or 100 mg) or a single intravenous dose (20 mg).

[2] = test system: advanced malignant tumors; test: Efficacy in subjects with advanced malignant tumors; type: in vivo, human; conditions: 48 subjects enrolled
Description: The efficacy, safety and tolerability of RX-3117 at various doses and frequencies were evaluated (see Example 4, above). Subjects with advanced malignant tumors were administered capsules containing RX-3117 at various doses, from TIWK to 7 times per week for 3 weeks with 1 week off during each 4-week cycle. Dose escalation begins with an accelerated design treating 1 subject per dose (Simon et al., J. Natl. Cancer Inst., 89(15):1138-47 (1997) followed by a standard 3+3 design using a modified Fibonacci sequence after the occurrence of a single related Grade 2 or greater adverse event. Table 4 (above) summarizes the dosing schedule.

SW1573/G- = test: Cell cycle distribution by flow cytometry (PI); type: cell-based, human
Description: The effect of RX-3117 on cell cycle regulation and cell death in human non-small cell lung cancer (NSCLC) cell lines A549 (adenocarcinoma), SW1573 (alveolar carcinoma) and SW1573/G- (SW1573 cell line resistant to gemcitabine) and H460 (large cell carcinoma) was assessed. The A549 and H460 cell lines were obtained from American Type Culture Collection (Manassas, Va., USA). The SW1573 cell line, obtained from Dr. Johan van Rijn (see Keiser et al., Cancer Research, 49:2988-2993 (1989)), also served as the parental cell line for SW1573/G-. A549, SW1573, and SW1573/G- and H460 were kept in exponential growth in T25 flasks (Greiner Bio-One GmbH, Frickenhausen, Germany) and cultured in Dulbecco's minimal essential medium (DMEM) or RPMI 1640 (A549) supplemented with 10% heat-inactivated fetal bovine serum (FBS) 1% streptomycin and penicillin 20 mM HEPES and maintained in 37° C. water saturated atmospheres of 5% CO2. […] The cells stained with the PI solution were analyzed by FACSCalibur™ (BD Biosciences, Mount View, Calif., USA). Data was analyzed with CellQuest™ Pro software.
Cell cycle distribution and apoptosis were analyzed by plating cells in flat bottom 6 well plates (Greiner Bio-One GmbH, Frickenhausen, Germany) at the density of 5,000 cells and allowed to attach for 24 h. […] Subsequently, samples were analyzed using FACSCalibur (BD Biosciences, Mount View, Calif., USA). […]

What does the source list for `Nc1ccn([C@@H]2C(F)=C(CO)[C@@H](O)[C@H]2O)c(=O)n1` [RX-3117, 4-amino-1-((1S,4R,5S)-2-fluoro-4,5-dihydroxy-3-hydroxymethyl-cyclopent-2-enyl)-1H-pyrimidin-2-one]?
increase of intravenous Cmax over the peak concentrations of the oral doses ([1]; 20 mg intravenous vs 50 and 100 mg oral): ~4 fold; Cmax ([1]; single intravenous dose 20 mg): 1140 ng/mL; Tmax ([1]; single intravenous dose 20 mg, read-out: Tmax): 0.25 h; Cmax ([1]; single oral dose 50 mg): 303 ng/mL; half-life ([1]; single oral dose 50 mg): 13.9 h; bioavailability ([1]; single oral dose 50 mg): 55.7%; Tmax ([1]; single oral dose 50 mg, read-out: mean Tmax): 2.16 h; Cmax ([1]; single oral dose 100 mg): 311 ng/mL; half-life ([1]; single oral dose 100 mg): 20.9 h; bioavailability ([1]; single oral dose 100 mg): 33.4%; Tmax ([1]; single oral dose 100 mg, read-out: mean Tmax): 2.49 h; adverse events (AE, TEAE, SAE) ([1]; single 50 or 100 mg oral or 20 mg intravenous dose): No adverse event; safety and tolerability ([1]; single 50 or 100 mg oral or 20 mg intravenous dose, all subjects): safe and well-tolerated; subjects with stable disease for 1 to 10 cycles ([2]; various oral doses and frequencies): Seventeen; subjects with tumor burden reduction ([2]; pancreatic, breast and mesothelioma cancers): 3 subjects; accumulation of cells in the G1 phase (SW1573/G-; 1 μM, 24 hour exposure): induced accumulation; accumulation of cells in the S-phase (SW1573/G-; 5×IC50, 24 and 48 hours): induced the accumulation
